# Laboratory results as given in PubChem BioAssay (NCI).
#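 Compound exposure: 48 hours, 5 concentrations, 96-well plates. At the TGI there is no net growth.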
# Assays:
# Assay in all cases: NCI-60 cell line screen, 48 h
# [1] = tested on: 786-0 renal
# [2] = tested on: A498 renal
# [3] = tested on: A549 NSCLC
# [4] = tested on: ACHN renal
# [5] = tested on: BT-549 breast
# [6] = tested on: CCRF-CEM leukemia
# [7] = tested on: COLO 205 colon
# [8] = tested on: DU-145 prostate
# [9] = tested on: EKVX NSCLC
# [10] = tested on: HCC-2998 colon
# [11] = tested on: HCT-116 colon
# [12] = tested on: HCT-15 colon
# [13] = tested on: HL-60(TB) leukemia
# [14] = tested on: HOP-92 NSCLC
# [15] = tested on: HS 578T breast
# [16] = tested on: HT29 colon
# [17] = tested on: IGROV1 ovarian
# [18] = tested on: K-562 leukemia
# [19] = tested on: KM12 colon
# [20] = tested on: M14 melanoma
# [21] = tested on: MALME-3M melanoma
# [22] = tested on: MCF7 breast
# [23] = tested on: MDA-MB-435
# [24] = tested on: MOLT-4 leukemia
# [25] = tested on: NCI-H226 lung
# [26] = tested on: NCI-H23 lung
# [27] = tested on: NCI-H460 lung
# [28] = tested on: NCI-H522 lung
# [29] = tested on: NCI/ADR-RES ovarian
# [30] = tested on: OVCAR-3 ovarian
# [31] = tested on: OVCAR-4 ovarian
# [32] = tested on: OVCAR-5 ovarian
# [33] = tested on: OVCAR-8 ovarian
# [34] = tested on: PC-3 prostate
# [35] = tested on: RPMI-8226 leukemia
# [36] = tested on: RXF 393 renal
# [37] = tested on: SF-268 CNS
# [38] = tested on: SF-295 CNS
# [39] = tested on: SF-539 CNS
# [40] = tested on: SK-MEL-2 melanoma
# [41] = tested on: SK-MEL-28 melanoma
# [42] = tested on: SK-MEL-5 melanoma
# [43] = tested on: SK-OV-3 ovarian
# [44] = tested on: SNB-19 CNS
# [45] = tested on: SNB-75 CNS
# [46] = tested on: SR leukemia
# [47] = tested on: SW-620 colon
# [48] = tested on: T-47D breast
# [49] = tested on: TK-10 renal
# [50] = tested on: U251 CNS
# [51] = tested on: UACC-257 melanoma
# [52] = tested on: UACC-62 melanoma
# [53] = tested on: UO-31 renal
# [54] = tested on: CAKI-1 renal
# [55] = tested on: HOP-62 NSCLC
# [56] = tested on: LOX IMVI melanoma
# [57] = tested on: SN12C renal
compound,measurement,setting,value
CC(=O)Nc1oc(C)c(C)c1S(=O)(=O)c1ccc(Cl)cc1,TGI,[1],> 100 µM
same,TGI,[2],> 100 µM
same,TGI,[3],> 100 µM
same,TGI,[4],> 100 µM
same,TGI,[5],89.3 µM
same,TGI,[6],> 100 µM
same,TGI,[7],> 100 µM
same,TGI,[8],> 100 µM
same,TGI,[9],> 100 µM
same,TGI,[10],> 100 µM
same,TGI,[11],> 100 µM
same,TGI,[12],> 100 µM
same,TGI,[13],> 100 µM
same,TGI,[14],> 100 µM
same,TGI,[15],93.6 µM
same,TGI,[16],> 100 µM
same,TGI,[17],> 100 µM
same,TGI,[18],> 100 µM
same,TGI,[19],> 100 µM
same,TGI,[20],> 100 µM
same,TGI,[21],> 100 µM
same,TGI,[22],> 100 µM
same,TGI,[23],> 100 µM
same,TGI,[24],> 100 µM
same,TGI,[25],> 100 µM
same,TGI,[26],> 100 µM
same,TGI,[27],> 100 µM
same,TGI,[28],> 100 µM
same,TGI,[29],> 100 µM
same,TGI,[30],> 100 µM
same,TGI,[31],> 100 µM
same,TGI,[32],> 100 µM
same,TGI,[33],> 100 µM
same,TGI,[34],83.4 µM
same,TGI,[35],> 100 µM
same,TGI,[36],> 100 µM
same,TGI,[37],> 100 µM
same,TGI,[38],> 100 µM
same,TGI,[39],> 100 µM
same,TGI,[40],85.6 µM
same,TGI,[41],> 100 µM
same,TGI,[42],76.6 µM
same,TGI,[43],> 100 µM
same,TGI,[44],> 100 µM
same,TGI,[45],> 100 µM
same,TGI,[46],> 100 µM
same,TGI,[47],> 100 µM
same,TGI,[48],> 100 µM
same,TGI,[49],> 100 µM
same,TGI,[50],> 100 µM
same,TGI,[51],> 100 µM
same,TGI,[52],> 100 µM
same,TGI,[53],> 100 µM
O=[N+]([O-])c1cccc2nc3ccccc3c(NCCCCNc3c4ccccc4nc4cccc([N+](=O)[O-])c34)c12,TGI,[1],0.0943 µM
same,TGI,[3],> 33.2 µM
same,TGI,[4],0.0913 µM
same,TGI,[5],1.79 µM
same,TGI,[54],0.168 µM
same,TGI,[6],0.0892 µM
same,TGI,[7],0.173 µM
same,TGI,[8],0.133 µM
same,TGI,[9],2.11 µM
same,TGI,[10],0.164 µM
same,TGI,[11],0.0347 µM
same,TGI,[12],1.02 µM
same,TGI,[13],0.0246 µM
same,TGI,[55],0.372 µM
same,TGI,[14],0.0854 µM
same,TGI,[15],0.935 µM
same,TGI,[16],0.0366 µM
same,TGI,[17],2.2 µM
same,TGI,[19],0.204 µM
same,TGI,[56],0.258 µM
same,TGI,[20],0.199 µM
same,TGI,[21],0.255 µM
same,TGI,[22],0.412 µM
same,TGI,[24],0.0887 µM
same,TGI,[25],2.66 µM
same,TGI,[26],0.159 µM
same,TGI,[27],0.0574 µM
same,TGI,[28],0.0639 µM
same,TGI,[29],2.71 µM
same,TGI,[30],0.231 µM
same,TGI,[31],0.508 µM
same,TGI,[32],1.64 µM
same,TGI,[33],1.09 µM
same,TGI,[34],> 100 µM
same,TGI,[36],0.117 µM
same,TGI,[37],0.189 µM
same,TGI,[38],1.02 µM
same,TGI,[39],0.102 µM
same,TGI,[40],> 100 µM
same,TGI,[41],0.522 µM
same,TGI,[42],0.165 µM
same,TGI,[43],1.69 µM
same,TGI,[57],0.38 µM
same,TGI,[44],0.152 µM
same,TGI,[45],1.83 µM
same,TGI,[47],0.174 µM
same,TGI,[48],1.04 µM
same,TGI,[49],0.0304 µM
same,TGI,[50],0.187 µM
same,TGI,[51],0.682 µM
same,TGI,[52],0.302 µM
same,TGI,[53],0.398 µM
